≈ marks a conversion by molar mass, not a printed value.
Experiments:
[1] = system: T. cruzi CL Brener trypomastigotes; test: Trypomastigote IC50 estimation, CL Brener strain; type: cell-based, Trypanosoma cruzi; settings: for IC50: Trypanosoma cruzi, 24 h; for IC50 / T. cruzi CL Brener IC50: trypomastigotes, 24 h incubation, IC50 ± SD (n = 3); for Selectivity NRK/T. cruzi (SI): IC50NRK/IC50 parasite, CL Brener trypomastigotes
Experimental: (§1) The NRK and Vero cell lines were routinely maintained in DMEM (Gibco) supplemented with 10% SFB (Natocor) and Penicillin/Streptomicin (100 Units/0.1mg/mL, Sigma) at 37 °C and 5% CO2 atmosphere. The trypomatigotes of T. cruzi strains CL Brener, Y, and RA were routinely maintained in Vero cells cultured in DMEM supplemented with 4% SFB and Penicillin/Streptomicin. The trypomastigotes of each strain were purified from infected Vero cells supernatants and used in the different assays.
(§2) 2 × 10^6/mL trypomastigotes were incubated with different concentrations of the hybrids, control drug or vehicle, by triplicate at 37 °C and 5% CO2 for 24 h. Next, trypomastigotes were counted in a Neubauer chamber. The IC50 ± SD (n = 3) were estimated using the “Dose–Response” module in Graphpad Prism.

[2] = system: T. cruzi RA (DTU VI) trypomastigotes; test: Trypomastigote IC50 estimation, RA strain; type: cell-based, Trypanosoma cruzi; settings: 24 h incubation; for IC50: Trypanosoma cruzi, 24 h
Experimental: as §1, §2

[3] = system: T. cruzi Y (DTU II) trypomastigotes; test: Trypomastigote IC50 estimation, Y strain; type: cell-based, Trypanosoma cruzi; settings: 24 h incubation; for IC50: Trypanosoma cruzi, 24 h
Experimental: as §1, §2

NRK cells = test: NRK cell IC50 estimation (cytotoxicity, crystal violet); type: cell-based; settings: 48 h incubation; for IC50: Rattus norvegicus, NRK, 48 h
Experimental: as §1
1 × 10^5/mL NRK cells were grown overnight in a 96 multi-well plate. The culture medium was replaced by a culture medium containing increasing concentrations of hybrids, control drugs or vehicles, and cells incubated at 37 °C and 5% CO2 for 48 h. Next, cells were washed, fixed for 10 min with cold methanol (Sintorgan), and stained with violet crystal (Sigma 0.5% in methanol). After an exhaustive wash, cells were dried overnight. 10% acetic acid (Biopack) was added to each well, and the absorbance measured at 600 nm. Similarly, a standard curve was prepared (absorbance vs. increasing concentrations of NRK cells) to estimate the NRK IC50 using Graphpad Prism.

T. brucei = system: T. brucei; set-up: method as in PMID 23816880; settings: compared with the commercial drug suramin; cited from earlier work
[4] = system: intracellular amastigotes of the Y strain; test: Amastigote count in infected NRK cells; type: cell-based, Trypanosoma cruzi; settings: hybrid at trypomastigote IC50 for the Y strain, 48 h, compared to untreated infected cells
Excerpt: Not only the genetic diversity among strains should be taken into account while searching for new drugs. Differential susceptibility of the different life cycle stages of the parasite within the same strain [18] should be also considered. In this regard, Bz and Nf effectiveness against axenic epimastigotes and the intracellular stages of T. cruzi have been already reported. […] More importantly, given that in the chronic phase of Chagas disease, current chemotherapy is not efficient and that parasitemia is usually low, performing new drug screenings on the intracellular replicative stage of the parasite appears to be the better approach. To confirm their anti-parasitic activity, nine of the hybrids were evaluated against intracellular amastigotes of the Y strain at the IC50 found for trypomastigotes of the same strain. Briefly, trypomastigotes were incubated with NRK cells and left to infect for two hours. […] Forty-eight hours post infection, cells were fixed and stained, and amastigotes/100 cells were calculated.
Infections were performed as previously described. […] After 48 h of incubation, cells were fixed with 4% formalin, stained with DAPI and photographed in a fluorescence microscope (Olympus). The amastigotes/100 cells were determined counting 1000 cells from each well (3000 cells/compound) using the ImageJ cell counter plugin. […]

[5] = system: trypomastigotes of the Y strain released from infected NRK cells; test: Trypomastigote release assay; type: cell-based, Trypanosoma cruzi; settings: 72 hours of treatment then drug-free medium, vs non-treated control
Excerpt: To fully eliminate the intracellular parasite, a trypanocidal drug action is ideally desired. For trypanostatic drugs, a longer chemotherapy is required to allow the elimination of the intracellular parasite, since the anti-parasitic effect could be reversed upon removal of the drug. In order to characterize the antiparasitic features of the hybrids, our strategy was to remove the hybrids from the medium of infected NRK cells and let the infection develop. In this approach, after the two hour infection of NRK cells with trypomastigotes of the Y strain, compounds were added and left for 72 hours before being replaced with fresh medium without drugs. Six days post infection, the trypomastigotes released to the supernatant were quantified. […]
NRK cells were cultured and treated as described in Section 4.1. […] At day 6 pi, the released trypomastigotes in the supernatant of infected were counted using a Neubauer chamber.
In all cases, 3 independent experiments were done by triplicate. […] The mean ± SD of amastigotes/100 cells or trypomastigote released were calculated and analyzed with one-way ANOVA with Dunnett posttest performed with Graphpad Prism software.

SMILES	IC50 [1]	IC50 [2]	IC50 [3]	Selectivity NRK/T. cruzi (SI) [1]	T. cruzi CL Brener IC50 [1]	NRK Cells IC50 (NRK cells)	IC50 (NRK cells)	trypanocidal activity against T. brucei, IC50 (T. brucei)	T. cruzi RA (DTU VI) IC50 [2]	T. cruzi Y (DTU II) IC50 [3]	Effect on intracellular amastigotes (amastigotes/100 cells) [4]	Trypomastigote count in the supernatant of infected cells at day six post infection [5]
O=C(Cn1ccnc1[N+](=O)[O-])NCc1ccccc1 [Bz, benznidazole, reference compound]	2.5 ± 0.01 µg/mL (≈ 9.61 µM)	2.5 ± 0.32 µg/mL (≈ 9.61 µM)	≥ 15 µg/mL	–	–	–	–	–	–	–	–	–
C=CC1CN2CCC1CC2C(O)c1cc(CCC(C)C2CCC3C4CCC5CC(OC(C)=O)CCC5(C)C4CCC23C)nc2ccc(OC)cc12 (stereo not drawn) [Hybrid 4a]	–	–	–	2.20	0.64 ± 0.15 µg/mL	1.41 ± 0.13 µg/mL	–	–	–	–	–	–
C=CC1CN2CCC1CC2C(O)c1cc(CCC(C)C2CCC3C4C(OC(C)=O)CC5CC(OC(C)=O)CCC5(C)C4CCC23C)nc2ccc(OC)cc12 (stereo not drawn) [Hybrid 4b]	0.8 ± 0.13 µg/mL (≈ 1.06 µM)	–	–	4.89	–	–	3.91 ± 0.29 µg/mL (≈ 5.18 µM)	–	–	–	–	–
C=CC1CN2CCC1CC2C(O)c1cc(CCC(C)C2CCC3C4CCC5CC(OC(C)=O)CCC5(C)C4CCC23C)nc2ccc(OC)cc12 (stereo not drawn) [Hybrid 4c]	1.08 ± 0.23 µg/mL (≈ 1.55 µM)	–	≥ 1 µg/mL	15.30	–	16.53 ± 0.18 µg/mL	–	–	–	–	–	–
C=CC1CN2CCC1CC2C(O)c1cc(CCC(C)C2CCC3C4C(OC(C)=O)CC5CC(OC(C)=O)CCC5(C)C4CCC23C)nc2ccc(OC)cc12 (stereo not drawn) [Hybrid 4d]	–	–	–	4.58	0.72 ± 0.07 µg/mL	3.30 ± 0.08 µg/mL	–	in the same range as the commercial drug suramin	–	–	–	–
C=CC1CN2CCC1CC2C(O)c1cc(CCC(C)C2CCC3C4CCC5CC(OC(C)=O)CCC5(C)C4CCC23C)nc2ccccc12 (stereo not drawn) [Hybrid 4e]	1.16 ± 0.15 µg/mL (≈ 1.74 µM)	–	–	6.46	–	–	7.5 ± 0.29 µg/mL (≈ 11.2 µM)	–	–	–	–	–
C=CC1CN2CCC1CC2C(O)c1cc(CCC(C)C2CCC3C4C(OC(C)=O)CC5CC(OC(C)=O)CCC5(C)C4CCC23C)nc2ccccc12 (stereo not drawn) [Hybrid 4f]	0.51 ± 0.06 µg/mL (≈ 0.703 µM)	–	–	13.04	–	–	6.69 ± 1.51 µg/mL (≈ 9.23 µM)	in the same range as the commercial drug suramin	0.25 ± 0.10 µg/mL	0.50 ± 0.03 µg/mL	significant reduction in intracellular amastigotes	significantly lower than non-treated control
C=CC1CN2CCC1CC2C(O)c1cc(CCC(C)C2CCC3C4CCC5CC(OC(C)=O)CCC5(C)C4CCC23C)nc2ccccc12 (stereo not drawn) [Hybrid 4g]	–	1.1 ± 0.21 µg/mL (≈ 1.65 µM)	3.05 ± 0.71 µg/mL (≈ 4.57 µM)	9.46	1.30 ± 0.01 µg/mL	12.30 ± 0.81 µg/mL	–	–	–	–	–	–
C=CC1CN2CCC1CC2C(O)c1cc(CCC(C)C2CCC3C4C(OC(C)=O)CC5CC(OC(C)=O)CCC5(C)C4CCC23C)nc2ccccc12 (stereo not drawn) [Hybrid 4h]	–	–	–	9.28	0.70 ± 0.18 µg/mL	6.50 ± 0.28 µg/mL	–	in the same range as the commercial drug suramin	1.50 ± 0.50 µg/mL	≥2.00 µg/mL	–	–
C=CC1CN2CCC1CC2C(O)c1cc(CCC(C)C2CCC3C4CCC5CC(O)CCC5(C)C4CCC23C)nc2ccc(OC)cc12 (stereo not drawn) [Hybrid 5a]	–	–	–	4.12	3.71 ± 0.13 µg/mL	15.30 ± 4.04 µg/mL	–	–	–	–	–	–
C=CC1CN2CCC1CC2C(O)c1cc(CCC(C)C2CCC3C4C(O)CC5CC(O)CCC5(C)C4CCC23C)nc2ccc(OC)cc12 (stereo not drawn) [Hybrid 5b]	–	–	–	5.67	0.90 ± 0.10 µg/mL	5.10 ± 0.76 µg/mL	–	in the same range as the commercial drug suramin	–	–	–	–
C=CC1CN2CCC1CC2C(O)c1cc(CCC(C)C2CCC3C4CCC5CC(O)CCC5(C)C4CCC23C)nc2ccc(OC)cc12 (stereo not drawn) [Hybrid 5c]	–	0.79 ± 0.19 µg/mL (≈ 1.21 µM)	≥ 2 µg/mL	–	0.78 ± 0.11 µg/mL	–	> 11 µg/mL	–	–	–	–	–
C=CC1CN2CCC1CC2C(O)c1cc(CCC(C)C2CCC3C4C(O)CC5CC(O)CCC5(C)C4CCC23C)nc2ccc(OC)cc12 (stereo not drawn) [Hybrid 5d]	–	–	–	3.98	0.40 ± 0.05 µg/mL	1.59 ± 0.54 µg/mL	–	in the same range as the commercial drug suramin	–	–	–	–
C=CC1CN2CCC1CC2C(O)c1cc(CCC(C)C2CCC3C4CCC5CC(O)CCC5(C)C4CCC23C)nc2ccccc12 (stereo not drawn) [Hybrid 5e]	3.96 ± 2.69 µg/mL (≈ 6.34 µM)	–	–	–	–	–	> 30 µg/mL	–	–	–	–	–
C=CC1CN2CCC1CC2C(O)c1cc(CCC(C)C2CCC3C4C(O)CC5CC(O)CCC5(C)C4CCC23C)nc2ccccc12 (stereo not drawn) [Hybrid 5f]	0.34 ± 0.03 µg/mL (≈ 0.53 µM)	0.31 ± 0.1 µg/mL (≈ 0.484 µM)	0.65 ± 0.07 µg/mL (≈ 1.01 µM)	–	–	4.02 ± 0.55 µg/mL	–	in the same range as the commercial drug suramin	–	–	significant reduction in intracellular amastigotes	significantly lower than non-treated control
C=CC1CN2CCC1CC2C(O)c1cc(CCC(C)C2CCC3C4CCC5CC(O)CCC5(C)C4CCC23C)nc2ccccc12 (stereo not drawn) [Hybrid 5g]	–	3.03 ± 0.24 µg/mL (≈ 4.85 µM)	3.25 ± 0.67 µg/mL (≈ 5.2 µM)	10.58	2.56 ± 0.58 µg/mL	27.11 ± 4.54 µg/mL	–	–	–	–	–	–
C=CC1CN2CCC1CC2C(O)c1cc(CCC(C)C2CCC3C4C(O)CC5CC(O)CCC5(C)C4CCC23C)nc2ccccc12 (stereo not drawn) [Hybrid 5h]	–	–	–	2.23	0.30 ± 0.00 µg/mL	0.67 ± 0.05 µg/mL	–	in the same range as the commercial drug suramin	–	–	–	–
